Data reported in patent publication US7026281B1, “Antagonistic analogs of GH-RH inhibiting IGF-I and -II” (The Administrators of the Tulane Educational Fund, priority 1998, dated 2006).
Square brackets hold non-standard residues; d marks the D form. Peptide text beside a SMILES is read from it. * marks the point of attachment. Phe(4-Cl) = N[C@@H](Cc1ccc(Cl)cc1)C(=O)O; hArg = N=C(N)NCCCC[C@H](N)C(=O)O; X1 = O=C(Cc1c[nH]c2ccccc12)*; Nle = CCCC[C@H](N)C(=O)O; Abu = CC[C@H](N)C(=O)O; PhAc = O=C(Cc1ccccc1)*

Key:
[1] = tested on: hGH-RH(1–29)NH2 induced GH release; assay: Inhibition of GH release in superfused rat pituitary system; assay type: cell-based; details: for Inhibition of GH release (%) 30 min: 1 nM hGH-RH(1–29)NH2 30 min later; for Inhibition of GH release (%) 60 min: 1 nM hGH-RH(1–29)NH2 60 min later; for Inhibition of GH release (%) 90 min: 1 nM hGH-RH(1–29)NH2 90 min later; for Inhibition of GH release (%) 120 min: 1 nM hGH-RH(1–29)NH2 120 min later; for Inhibition of GH release (%) 0 min: 1 nM hGH-RH(1–29)NH2 at 0 min
Experimental: Superfused Rat Pituitary System.
The analogs were tested in vitro in a test described earlier (S. Vigh and A. V. Schally, Peptides 5:241–347, 1984) with modification (Z. Rekasi and A. V. Schally, P.N.A.S. 90:2146–2149, 1993).
Briefly, the cells are preincubated with peptides for 9 minutes (3 mL) at various concentrations. Immediately after the incubation, 1 nM hGH-RH(1–29)NH2 is administered for 3 minutes (1 mL) [0 minute response]. To check the duration of the antagonistic effect of the analogue, 1 nM hGH-RH(1–29)NH2 is applied 30, 60, 90, and 120 minutes later for 3 minutes [30, 60, 90, 120 min responses]. Net integral values of the GH responses are evaluated. GH responses are compared to and expressed as percent of the original GH response induced by 1 nM GH-RH(1–29)NH2. The effect of the new antagonists are compared to that of [Ac-Tyr^1,D-Arg^2]hGH-RH(1–29)NH2, the “Standard antagonist”.
Growth Hormone Radio-immunoassay.
Rat GH levels in aliquots of undiluted and diluted superfusion samples were measured by double-antibody radioimmunoassay using materials supplied by the National Hormone and Pituitary Program, Baltimore, Md. The results of RIA were analyzed with a computer program developed in our institute (V. Csernus and A. V. Schally, in Neuroendocrine Research Methods, Harwood Academic (Greenstein, B. D. ed., London, pp. 71–109, 1991), hereby incorporated by reference. Inter-assay variation was less than 15% and intra-assay variation was less than 10%.

[2] = target: T1, rat pituitary GH-RH receptors (Rattus norvegicus, UniProt Q02644); assay: GH-RH radioreceptor binding assay, rat anterior pituitary membrane homogenates; details: for Ki: competition with [His1,125I-Tyr10,Nle27]hGH-RH(1–32)NH2; for R.A. (relative affinity compared to Standard antagonist): ratio of Ki values
T1 construct: from tissue; host or cells: anterior pituitary of male Sprague-Dawley rats, crude membrane homogenates
T1 sequence (Q02644 23-464): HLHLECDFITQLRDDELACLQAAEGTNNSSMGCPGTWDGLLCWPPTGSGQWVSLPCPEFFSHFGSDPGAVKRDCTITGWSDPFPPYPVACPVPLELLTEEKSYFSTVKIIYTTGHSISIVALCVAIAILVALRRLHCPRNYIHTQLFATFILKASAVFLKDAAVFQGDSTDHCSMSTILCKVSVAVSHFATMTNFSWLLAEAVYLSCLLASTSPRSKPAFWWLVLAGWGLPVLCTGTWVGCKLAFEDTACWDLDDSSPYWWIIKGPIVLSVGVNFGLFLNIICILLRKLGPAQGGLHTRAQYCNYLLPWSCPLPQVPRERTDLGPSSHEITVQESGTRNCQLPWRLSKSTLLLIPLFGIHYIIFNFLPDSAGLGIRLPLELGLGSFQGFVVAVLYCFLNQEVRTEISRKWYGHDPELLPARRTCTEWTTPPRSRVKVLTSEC
Experimental: GH-RH Binding Assay. A sensitive radioreceptor binding assay was developed to determine the binding characteristics of the antagonists of GH-RH (G. Halmos, A. V. Schally et al., Receptor 3, 87–97, 1993), hereby incorporated by reference. The assay is based on binding of labelled [His^1,Nle^27]hGH-RH(1–32)NH2 to rat anterior pituitary membrane homogenates. Iodinated derivatives of [His^1,Nle^27]hGH-RH(1–32)NH2 are prepared by the chloramine-T method (F. C. Greenwood et al., Biochemistry 89:114–123, 1963), hereby incorporated by reference. Pituitaries from male Sprague-Dawley rats (250–300 g) are used to prepare crude membranes. For saturation binding analyses, membrane homogenates are incubated with at least 6 concentrations of [His^1,^125I-Tyr^10,Nle^27]hGH-RH(1–32) NH2, ranging from 0.005 to 0.35 nM in the presence or absence of excess unlabelled peptide (1 μM).
The pellet is counted for radioactivity in a γ-counter. The affinities of the antagonist peptides tested to rat pituitary GH-RH receptors are determined in competitive binding experiments. The final binding affinities are estimated by Ki (dissociation constant of the inhibitor-receptor complex) and are determined by the Ligand PC and McPherson computer programs of Munson and Rodbard (P. J. Munson and D. Rodbard, Anal. Biochem. 107. 220–239, 1980). Relative affinities compared to [Ac-Tyr^1,D-Arg^2]hGH-RH(1–29)NH2, the Standard antagonist, are calculated as the […].

[3] = tested on: GH release stimulated by hGH-RH(1–29)NH2; assay: In vivo inhibition of serum GH response in rats; design: species or system rat
Experimental: GH-RH antagonistic effect of the analogs was tested on young male Sprague-Dawley rats (200–250 g). In each experiment, 5 groups of 7 animals each were used. The compounds (80 μg/kg) and GH-RH(1–29)NH2 (3 μg/kg) were dissolved in 5.5% mannitol and given intravenously to the jugular vein of the rats under Nembutal anesthesia. The time elapsed between the administrations of the antagonist and GH-RH varied between groups, according to the following schedule. The first group of animals received GH-RH injection 5 min after the administration of the antagonist; for the second, third and fourth group of animals, the time interval elapsed between the injection of the antagonist and that of GH-RH was 15, 30, and 60 min, respectively. The control group was first injected with the solvent alone instead of the antagonist, followed by a GH-RH injection 5 min later.
0.4 mL blood samples were taken for GH RIA before the administration of the antagonist (“blood0”), and 5 min after the injection of GH-RH (“blood1”). The GH response in each group was calculated as rGH=(GHblood1/GHblood0), mean±S.E.M. of the individual differences. Relative inhibition of GH response (%) in each group treated was calculated as […].

Compound: CCCC[C@H](NC(=O)[C@@H](NC(=O)[C@H](CC(=O)O)NC(=O)[C@H](CCC(N)=O)NC(=O)[C@H](CC(C)C)NC(=O)[C@H](CC(C)C)NC(=O)[C@H](CCCCN)NC(=O)[C@H](CCCNC(=N)N)NC(=O)[C@H](C)NC(=O)[C@H](CO)NC(=O)[C@H](CC(C)C)NC(=O)[C@H](CCC(N)=O)NC(=O)[C@H](CC)NC(=O)[C@H](CC(C)C)NC(=O)[C@@H](NC(=O)[C@H](CCCCN)NC(=O)[C@H](CCCNC(=N)N)NC(=O)[C@H](Cc1ccc(O)cc1)NC(=O)[C@H](CCCNC(=N)N)NC(=O)[C@H](CC(N)=O)NC(=O)[C@@H](NC(=O)[C@H](Cc1ccc(Cl)cc1)NC(=O)[C@@H](NC(=O)[C@H](C)NC(=O)[C@H](CC(=O)O)NC(=O)[C@@H](CCCNC(=N)N)NC(=O)[C@H](Cc1ccc(O)cc1)NC(=O)Cc1c[nH]c2ccccc12)[C@@H](C)CC)[C@@H](C)O)C(C)C)[C@@H](C)CC)C(=O)N[C@H](CCCNC(=N)N)C(=O)N[C@@H](CCCCNC(=N)N)C(N)=O [Peptide 2, [IndAc^0, D-Arg^2, Phe(pCl)^6, Arg^9, Abu^15, Nle^27, D-Arg^28, Har^29]hGH-RH(1–29)NH2] (X1-Y[dR]DAI[Phe(4-Cl)]TNRYRKVL[Abu]QLSARKLLQDI[Nle][dR][hArg]-NH2)
- Inhibition of GH release (%) 30 min ([1]; antagonist 30 nM): 100%
- Inhibition of GH release (%) 60 min ([1]; antagonist 30 nM): 100%
- Inhibition of GH release (%) 90 min ([1]; antagonist 30 nM): 100%
- Inhibition of GH release (%) 120 min ([1]; antagonist 30 nM): 91%
- Inhibition of GH release (%) 0 min ([1]; antagonist 30 nM): 100%
- Ki [2]: 0.046 nM
- R.A. (relative affinity compared to Standard antagonist) [2]: 64
- Inhibition of the GH release stimulated by hGH-RH(1–29)NH2 (in words) ([3]; 80 μg/kg i.v., rats): strong and long-lasting inhibition
- Relative inhibition % of GH response ([3]; antagonist 80 μg/kg i.v. 5 min before GH-RH): 91%
- Relative inhibition % of GH response ([3]; antagonist 80 μg/kg i.v. 15 min before GH-RH): 45%
- GH response mean ± S.E.M. ([3]; antagonist 80 μg/kg i.v. 15 min before GH-RH 3 μg/kg): 3.45 ± 0.13
- Relative inhibition % of GH response ([3]; antagonist 80 μg/kg i.v. 30 min before GH-RH): 41%
- GH response mean ± S.E.M. ([3]; antagonist 80 μg/kg i.v. 30 min before GH-RH 3 μg/kg): 3.64 ± 0.71
- Relative inhibition % of GH response ([3]; antagonist 80 μg/kg i.v. 60 min before GH-RH): 2%
- GH response mean ± S.E.M. ([3]; antagonist 80 μg/kg i.v. 60 min before GH-RH 3 μg/kg): 5.41 ± 1.35
- GH response mean ± S.E.M. ([3]; rGH=GHblood1/GHblood0, antagonist 80 μg/kg i.v. 5 min before GH-RH 3 μg/kg): 1.40 ± 0.29

Compound: CCCC[C@H](NC(=O)[C@H](CC(N)=O)NC(=O)[C@@H](NC(=O)[C@H](Cc1ccc(Cl)cc1)NC(=O)[C@@H](NC(=O)[C@H](C)NC(=O)[C@H](CC(=O)O)NC(=O)[C@@H](CCCNC(=N)N)NC(=O)[C@H](Cc1ccc(O)cc1)NC(=O)Cc1ccccc1)[C@@H](C)CC)[C@@H](C)O)C(=O)N[C@@H](Cc1ccc(O)cc1)C(=O)N[C@@H](CCCNC(=N)N)C(=O)N[C@@H](CCCCN)C(=O)N[C@H](C(=O)N[C@@H](CC(C)C)C(=O)N[C@@H](CC)C(=O)N[C@@H](CCC(N)=O)C(=O)N[C@@H](CC(C)C)C(=O)N[C@@H](CO)C(=O)N[C@@H](C)C(=O)N[C@@H](CCCNC(=N)N)C(=O)N[C@@H](CCCCN)C(=O)N[C@@H](CC(C)C)C(=O)N[C@@H](CC(C)C)C(=O)N[C@@H](CCC(N)=O)C(=O)N[C@@H](CC(=O)O)C(=O)N[C@H](C(=O)N[C@@H](CCCC)C(=O)N[C@@H](CO)C(=O)N[C@H](CCCNC(=N)N)C(N)=O)[C@@H](C)CC)C(C)C [Peptide 12, [PhAc^0, D-Arg^2, Phe(pCl)^6, Nle^9, Abu^15, Nle^27, D-Arg^29]hGH-RH(1–29)NH2] (PhAc-Y[dR]DAI[Phe(4-Cl)]TN[Nle]YRKVL[Abu]QLSARKLLQDI[Nle]S[dR]-NH2)
- Inhibition of GH release (%) 30 min ([1]; antagonist 30 nM): 75%
- Inhibition of GH release (%) 60 min ([1]; antagonist 30 nM): 48%
- Inhibition of GH release (%) 90 min ([1]; antagonist 30 nM): 52%
- Inhibition of GH release (%) 120 min ([1]; antagonist 30 nM): 52%
- Inhibition of GH release (%) 0 min ([1]; antagonist 30 nM): 68%
- Ki [2]: 0.07 nM
- R.A. (relative affinity compared to Standard antagonist) [2]: 42

Compound: CC[C@H](C)[C@H](NC(=O)[C@H](C)NC(=O)[C@H](CC(=O)O)NC(=O)[C@@H](CCCNC(=N)N)NC(=O)[C@H](Cc1ccc(O)cc1)NC(C)=O)C(=O)N[C@@H](Cc1ccccc1)C(=O)N[C@H](C(=O)N[C@@H](CC(N)=O)C(=O)N[C@@H](CO)C(=O)N[C@@H](Cc1ccc(O)cc1)C(=O)N[C@@H](CCCNC(=N)N)C(=O)N[C@@H](CCCCN)C(=O)N[C@H](C(=O)N[C@@H](CC(C)C)C(=O)NCC(=O)N[C@@H](CCC(N)=O)C(=O)N[C@@H](CC(C)C)C(=O)N[C@@H](CO)C(=O)N[C@@H](C)C(=O)N[C@@H](CCCNC(=N)N)C(=O)N[C@@H](CCCCN)C(=O)N[C@@H](CC(C)C)C(=O)N[C@@H](CC(C)C)C(=O)N[C@@H](CCC(N)=O)C(=O)N[C@@H](CC(=O)O)C(=O)N[C@H](C(=O)N[C@@H](CCSC)C(=O)N[C@@H](CO)C(=O)N[C@@H](CCCNC(=N)N)C(N)=O)[C@@H](C)CC)C(C)C)[C@@H](C)O [Standard antagonist, [Ac-Tyr^1,D-Arg^2]hGH-RH(1–29)NH2, reference compound] (Ac-Y[dR]DAIFTNSYRKVLGQLSARKLLQDIMSR-NH2)
- Inhibition of GH release (%) 30 min ([1]; antagonist 100 nM): 2.5%
- Inhibition of GH release (%) 60 min ([1]; antagonist 100 nM): 19%
- Inhibition of GH release (%) 0 min ([1]; antagonist 100 nM): 62.1%
- Ki [2]: 2.94 nM
- R.A. (relative affinity compared to Standard antagonist) [2]: 1
